Source: US20040265847A1, “Method for treating Alzheimer's disease” (priority 1991, published 2004)

Target: T1, partially purified human serum APP (Homo sapiens, UniProt P05067)
T1 construct: from tissue; host or cells: human serum
Test: partially purified serum APP binding to heparin-Sepharose
Experimental: 40-60 ml of whole blood was allowed to clot for 3 hours in plain tubes at 20° C. The clotted blood was then incubated for 16 hours at 4° C., whereupon it was centrifuged at 1500 g for 15 minutes and the supernatant removed. The serum was further centrifuged at 1500 g for 15 minutes and the cell-free supernatant removed.
APP binding to heparin-Sepharose was also studied using partially purified APP preparations derived from human brain membranes (according to the method of Moir et al, 1992) or from human serum. Washed brain membrane extract or human serum was adjusted to a NaCl concentration of 350 mM and applied to a Q-Sepharose column (5 cm×5 cm), washed with 350 mM NaCl, 50 mM Tris-Hcl, pH 7.4 (250 ml [×2 for brain membrane extract]) and eluted with 1 M NaCl 50 mM Tris-HCl, pH 7.4 (200 ml at 5 ml/min). This procedure causes an 80-fold enrichment of APP in the peak protein fractions, which are then pooled (Moir et al, 1992). The eluate (20 ml) was desalted into 25 mM Tris, pH 7.4 (30 ml) using a G25 Sephadex column (2.6 cm×40 cm). 15 ml of the product was adjusted to 50 μM Zn^2+ with 2 mM ZnCl2, 50 mM Tris-Hcl, pH 7.4 and the other 15 ml was adjusted to the same volume with 50 mM Tris-HCl, pH 7.4. 10 ml of the deslated Q-Sepharose eluate, containing 6.7 mg protein, was applied to heparin-Sepharose (1.6 cm×5 cm) at 0.35 ml/min, washed with 100 ml of loading buffer, and eluted by a 0 to 1500 mM NaCl gradient (±50 μM Zn^2+) in 52.5 ml at a flow rate of 0.35 ml/min. […] The immunoreactive staining of the 130 kDa APP species seen on the blots was quantified by computer-assisted image capture reflectance densitometry (Bush et al., 1992). The 130 kDa reflectance signals on the blots were expressed as the ratio of the signal generated in one sample lane related to the 130 kDa APP reflectance reading of a sample of starting material present on every individual filter as an internal standard.

T1 sequence (P05067 18-687 limits assumed): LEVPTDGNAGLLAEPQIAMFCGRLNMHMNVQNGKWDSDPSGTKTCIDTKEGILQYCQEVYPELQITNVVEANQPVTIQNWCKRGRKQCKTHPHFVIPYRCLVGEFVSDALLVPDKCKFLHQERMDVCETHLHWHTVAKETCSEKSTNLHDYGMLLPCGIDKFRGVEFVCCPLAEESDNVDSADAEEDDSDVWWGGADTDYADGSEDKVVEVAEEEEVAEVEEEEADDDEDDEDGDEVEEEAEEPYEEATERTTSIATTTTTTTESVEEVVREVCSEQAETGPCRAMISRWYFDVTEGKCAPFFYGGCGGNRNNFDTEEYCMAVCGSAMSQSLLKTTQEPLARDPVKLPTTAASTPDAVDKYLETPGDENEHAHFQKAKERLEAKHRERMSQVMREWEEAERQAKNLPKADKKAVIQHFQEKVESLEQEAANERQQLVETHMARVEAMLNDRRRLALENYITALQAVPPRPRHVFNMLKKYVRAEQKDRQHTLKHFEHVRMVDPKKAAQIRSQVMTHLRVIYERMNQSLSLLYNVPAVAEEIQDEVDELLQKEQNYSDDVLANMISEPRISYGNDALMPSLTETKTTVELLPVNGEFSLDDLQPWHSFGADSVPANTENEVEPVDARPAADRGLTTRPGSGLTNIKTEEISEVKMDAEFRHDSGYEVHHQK

With `[Cl-].[Cl-].[Zn+2]` [Zn^2+, ZnCl2] the “effect on proportion of higher-affinity binding of serum-derived APP” value was “did not increase the proportion of higher-affinity binding”, the “increase in APP recovered from the NaCl elution” value (50 μm Zn^2+) was 10% and the “increase in amount of protein recovered” value (50 μm Zn^2+, protein assay) was 12%.
